Read-outs that look alike come from different tables or passages of the source.
Key:
5-HT2B = 5-HT2B (Homo sapiens, UniProt P41595); test: 5-HT2B receptor affinity (K1, Table 1); type: binding
Method: (§1) Compounds of the invention were made according to the respective syntheses noted above, and their activity and selectivity was determined. […] The compounds accordingly are expected to be useful as 5-HT2B receptor modulators, e.g., in the treatment of a wide variety of clinical conditions which are characterized by serotonin excess or absence, e.g., serotoninergic hypofunction or hyperfunction. Such conditions include those noted above, and conditions associated with vascular disorders, e.g., angina, migraine, pulmonary hypertension and systemic hypertension.

Rat Fundus = test: Functional (Antagonist Rat Fundus); type: cell-based
Method: as §1

[1] = Rat pharmacokinetics (% F, T1/2); settings: in vivo; for bioavailability: oral, read-out: PK (% F) rat

5-HT2B, sequence (P41595 whole entry, species assumed): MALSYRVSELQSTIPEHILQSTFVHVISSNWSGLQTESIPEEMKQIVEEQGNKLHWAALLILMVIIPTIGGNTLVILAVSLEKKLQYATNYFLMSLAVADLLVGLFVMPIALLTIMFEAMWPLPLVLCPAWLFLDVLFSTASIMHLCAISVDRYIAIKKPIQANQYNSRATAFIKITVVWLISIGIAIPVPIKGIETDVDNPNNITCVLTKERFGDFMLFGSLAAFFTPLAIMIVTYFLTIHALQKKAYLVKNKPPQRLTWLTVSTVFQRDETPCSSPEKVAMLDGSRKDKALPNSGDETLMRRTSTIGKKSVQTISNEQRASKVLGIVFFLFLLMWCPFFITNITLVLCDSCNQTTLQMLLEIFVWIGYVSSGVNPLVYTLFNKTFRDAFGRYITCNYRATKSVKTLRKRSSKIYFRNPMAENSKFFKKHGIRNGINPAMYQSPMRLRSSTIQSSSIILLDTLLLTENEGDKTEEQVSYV

SMILES | Ki (5-HT2B) [nM] | further results
CC(C)Cc1cc2c(NC3CCN(C(C)c4c(F)cccc4F)CC3)ncnc2s1 (stereo not drawn) [Compound 15] | 20 | –
CC(c1c(F)cc(F)cc1F)N1CCC(Nc2ncnc3sc4c(c23)CCCC4)CC1 (stereo not drawn) [Compound 19] | 72 | –
CC(c1c(F)cccc1F)N1CCC(Nc2ncnc3sc4c(c23)CCCC4)CC1 (stereo not drawn) [Compound 16] | 44 | –
CC(C)c1cc2c(NC3CCN(Cc4cc(F)cc(F)c4)CC3)ncnc2s1 [Compound 1] | 0.57 | IC50 (Rat Fundus): 830 nM; bioavailability [1]: 9.8%
Cc1sc2ncnc(NC3CCN(CC4CCCCC4)CC3)c2c1C [Compound 9] | 7.8 | –
Fc1cccc(CNCCCNc2ncnc3sc4c(c23)CCCC4)c1 [Compound 13] | 17 | –
CC(C)Cc1cc2c(NC3CCN(C(C)c4cc(F)cc(F)c4)CC3)ncnc2s1 (stereo not drawn) [Compound 7] | 4.2 | IC50 (Rat Fundus): 5700 nM; bioavailability [1]: 2.8%
CC(c1cccc(F)c1)N1CCC(Nc2ncnc3sccc23)CC1 (stereo not drawn) [Compound 11] | 14 | –
CC(c1cccc(F)c1)N1CCC(C)(Nc2ncnc3sc4c(c23)CCCC4)CC1 (stereo not drawn) [Compound 25] | 1200 | –
CC(c1cc(F)cc(F)c1)N1CCC(Nc2ncnc3sc4c(c23)CCCC4)CC1 (stereo not drawn) [Compound 5] | 2.64 | IC50 (Rat Fundus): 1300 nM
CC(NCCCNc1ncnc2sc3c(c12)CCCC3)c1cccc(F)c1 (stereo not drawn) [Compound 17] | 52 | –
CC(C)(c1cccc(F)c1)N1CCC(Nc2ncnc3sc4c(c23)CCCC4)CC1 [Compound 12] | 15 | –
CC(c1cccc(F)c1)N1CCC(Nc2ncnc3sc4c(c23)CCCC4)CC1 (stereo not drawn) [Compound 6] | 4 | –
Fc1cc(F)cc(CN2CCC(Nc3ncnc4sccc34)CC2)c1 [Compound 14] | 18 | IC50 (Rat Fundus): 1600 nM; half-life ([1]; iv, read-out: T1/2 (hr) rat iv (converted)): 0.3 h
Fc1cccc(CN2CCC(Nc3ncnc4sc5c(c34)CCCC5)CC2)c1 [Compound 4] | 2.3 | IC50 (Rat Fundus): 100 nM
CC(C)Cc1cc2c(N3CCC(NCc4cc(F)cc(F)c4)CC3)ncnc2s1 [Compound 26] | 1300 | –
Cc1sc2ncnc(NC3CCN(C(C)c4cccc(F)c4)CC3)c2c1C (stereo not drawn) [Compound 8] | 4.6 | –
CC(C)Cc1cc2c(NC3CCN(C(C)c4c(F)cc(F)cc4F)CC3)ncnc2s1 (stereo not drawn) [Compound 18] | 70 | –
CC(C)Cc1cc2c(NCCCNC(C)c3cccc(F)c3)ncnc2s1 (stereo not drawn) [Compound 22] | 150 | –
CC(C#N)(c1cccc(F)c1)N1CCC(Nc2ncnc3sc4c(c23)CCCC4)CC1 (stereo not drawn) [Compound 21] | 120 | –
c1ccc(CN2CCC(Nc3ncnc4sc5c(c34)CCCC5)CC2)cc1 [Compound 10] | 13 | IC50 (Rat Fundus): 110 nM; bioavailability [1]: 1.5%
CC(C)CC(c1cccc(F)c1)N1CCC(Nc2ncnc3sc4c(c23)CCCC4)CC1 (stereo not drawn) [Compound 20] | 84 | –
Fc1cccc(CN2CCC(Nc3ncnc4sc(Cl)cc34)CC2)c1 [Compound 2] | 0.79 | –
CC(C)Cc1cc2c(NC3CCN(C(C)c4cccc(F)c4)CC3)ncnc2s1 (stereo not drawn) [Compound 3] | 0.97 | IC50 (Rat Fundus): 5300 nM; bioavailability [1]: 3.9%; half-life ([1]; po, read-out: T1/2 (hr) rat* po (converted)): 0.45 h
Cc1sc2ncnc(NC3CCN(Cc4ccccc4C#N)CC3)c2c1C [Compound 23] | 210 | –
Fc1cccc(C(N2CCC(Nc3ncnc4sc5c(c34)CCCC5)CC2)C(F)(F)F)c1 (stereo not drawn) [Compound 24] | 950 | –

— US20040248904A1, “New piperidinylamino-thieno[2,3-d] pyrimidine compounds” (priority 2003, published 2004)
